Source: patent US12098145B2 (Libra Therapeutics, Inc., priority 2022, dated 2024)

Target: T1, TRPML1 (Homo sapiens, UniProt Q9GZU1)
T1 construct: expressed in transfected cells; host or cells: HEK T-REx cells stably expressing GCaMP6f and TRPML1
Experiment: Cellular TRPML1 assay (FLIPR, GCaMP6f calcium read-out)
Assay type: cell-based
Details: HEKT-REx/GCaMP6f/TRPML1 cells, FLIPR TETRA, kinetic response over 300 seconds; read-out: TRPML1 FLIPR pEC50 (converted)
Method: Example A: Cellular TRPML1 Assay
The final clone for the TRPML1 assay is HEKT-REx/GCaMP6f/TRPML1. GCaMP6f is a genetically encoded calcium indicator that is stably expressed in this cell line and used as a fluorescent read-out.
Experiments were performed in 384 MTP format. Cells are seeded at 15000 cells/well in 20 μl/well of Optimem+0.5% FBS without selection antibiotics. Twenty-four hours later, cells are assayed for the response to various compounds using the Ca^2+ sensitive GCaMP6f protein stably expressed in the cells as readout.
The experiment was performed in a 384-well format according to the following procedures: • 24 h after seeding, the cells were pre-incubated at room temperature for about 10 min. • Started the experiment at the FLIPR^TETRA by injecting 10 μL/w of 3× concentrated test compounds and controls in Ca^2+ free Tyrode's buffer. Monitored the kinetic response over a period of 300 seconds. • Final DMSO concentration: 0.5%
Data from FLIPR^TETRA measurements were analyzed with the Genedata Screener© software.

T1 sequence (Q9GZU1 whole entry): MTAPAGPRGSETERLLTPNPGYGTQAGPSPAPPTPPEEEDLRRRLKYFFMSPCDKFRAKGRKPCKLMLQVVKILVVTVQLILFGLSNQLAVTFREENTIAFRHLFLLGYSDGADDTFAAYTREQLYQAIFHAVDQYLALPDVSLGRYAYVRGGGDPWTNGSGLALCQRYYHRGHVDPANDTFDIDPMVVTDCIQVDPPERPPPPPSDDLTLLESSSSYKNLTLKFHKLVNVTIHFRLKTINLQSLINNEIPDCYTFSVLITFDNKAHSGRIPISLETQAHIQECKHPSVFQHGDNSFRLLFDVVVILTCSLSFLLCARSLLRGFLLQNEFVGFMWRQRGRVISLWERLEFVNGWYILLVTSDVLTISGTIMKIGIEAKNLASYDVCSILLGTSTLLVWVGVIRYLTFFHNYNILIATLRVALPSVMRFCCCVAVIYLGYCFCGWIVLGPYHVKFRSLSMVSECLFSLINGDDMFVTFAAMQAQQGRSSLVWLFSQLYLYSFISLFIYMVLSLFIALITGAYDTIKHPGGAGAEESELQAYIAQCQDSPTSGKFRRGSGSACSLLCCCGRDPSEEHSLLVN

| Structure (SMILES) | EC50 [nM] |
| --- | --- |
| O=C(Nc1ccc(OC2CCCC2)c(F)c1)c1nc(N2C[C@H]3CCO[C@H]3C2)oc1CC(F)(F)F [Example 61, N-(4-(cyclopentyloxy)-3-fluorophenyl)-2-((3aR,6aR)-hexahydro-5H-furo[2,3-c]pyrrol-5-yl)-5-(2,2,2-trifluoroethyl)oxazole-4-carboxamide] | 1000 to 10000 |
| CC1(C)CN(c2nc(C(=O)Nc3cc(F)c(OC4CCCOC4)c(F)c3)c(CC(F)(F)F)o2)C1 (racemic) [Example 72, N-(3,5-difluoro-4-((tetrahydro-2H-pyran-3-yl)oxy)phenyl)-2-(3,3-dimethylazetidin-1-yl)-5-(2,2,2-trifluoroethyl)oxazole-4-carboxamide] | 10 to 1000 |
| O=C(Nc1ccc(OC2CCCC2(F)F)c(F)c1)c1nc(N2CCCC23CC3)oc1CC(F)(F)F (stereo not shown) [Example 11, N-(4-((2,2-difluorocyclopentyl)oxy)-3-fluorophenyl)-2-(4-azaspiro[2.4]heptan-4-yl)-5-(2,2,2-trifluoroethyl)oxazole-4-carboxamide] | 1000 to 10000 |
| Cc1oc(N2CC3(C2)CC(F)(F)C3)nc1C(=O)Nc1ccc(N2CCCCC2)c(F)c1 [Example 89, 2-(6,6-difluoro-2-azaspiro[3.3]heptan-2-yl)-N-(3-fluoro-4-(piperidin-1-yl)phenyl)-5-methyloxazole-4-carboxamide] | 1000 to 10000 |
| CCC1(CC)CN(c2nc(C(=O)Nc3cc(F)c(N4CCCCC4)c(F)c3)c(CC(F)(F)F)o2)C1 [Example 215, 2-(3,3-diethylazetidin-1-yl)-N-(3,5-difluoro-4-(piperidin-1-yl)phenyl)-5-(2,2,2-trifluoroethyl)oxazole-4-carboxamide] | 10 to 1000 |
| O=C(Nc1ccc(OC2COCC2(F)F)c(F)c1)c1nc(N2CCC3(CC3)C2)oc1CC(F)(F)F (stereo not shown) [Example 63, N-(4-((4,4-difluorotetrahydrofuran-3-yl)oxy)-3-fluorophenyl)-2-(5-azaspiro[2.4]heptan-5-yl)-5-(2,2,2-trifluoroethyl)oxazole-4-carboxamide] | 1000 to 10000 |
| O=C(Nc1cc(F)c(N2CCC3OCCC32)c(F)c1)c1nc(N2CCCC2)oc1CC(F)(F)F (stereo not shown) [Example 198, N-(3,5-difluoro-4-(hexahydro-4H-furo[3,2-b]pyrrol-4-yl)phenyl)-2-(pyrrolidin-1-yl)-5-(2,2,2-trifluoroethyl)oxazole-4-carboxamide] | 1000 to 10000 |
| CCc1oc(N2CC(C)(OC)C2)nc1C(=O)Nc1cc(F)c(N2CC3CC(C3)C2)c(F)c1 [Example 258, N-(4-(3-azabicyclo[3.1.1]heptan-3-yl)-3,5-difluorophenyl)-5-ethyl-2-(3-methoxy-3-methylazetidin-1-yl)oxazole-4-carboxamide] | 1000 to 10000 |
| Cc1oc(N2CCC(O)C2)nc1C(=O)Nc1ccc(N2CCCCC2)c(F)c1 (stereo not shown) [Example 97, N-(3-fluoro-4-(piperidin-1-yl)phenyl)-2-(3-hydroxypyrrolidin-1-yl)-5-methyloxazole-4-carboxamide] | 10000 to 100000 |
| O=C(Nc1ccc(OC2CCCC2(F)F)c(F)c1)c1nc(N2Cc3ccccc3C2)oc1CC(F)(F)F (stereo not shown) [Example 1, N-{4-[(2,2-difluorocyclopentyl)oxy]-3-fluorophenyl}-2-(2,3-dihydro-1H-isoindol-2-yl)-5-(2,2,2-trifluoroethyl)-1,3-oxazole-4-carboxamide] | 10000 to 100000 |
| O=C(Nc1ccc(OC2CCOCC2)c(F)c1)c1nc(N2CCCC2)oc1CC(F)(F)F [Example 56, N-[3-fluoro-4-(oxan-4-yloxy)phenyl]-2-(pyrrolidin-1-yl)-5-(2,2,2-trifluoroethyl)oxazole-4-carboxamide] | 1000 to 10000 |
| CCC1(CC)CN(c2nc(C(=O)Nc3cc(F)c(OC4CCCC5(CCC5)C4)c(F)c3)c(CC(F)(F)F)o2)C1 (stereo not shown) [Example 134, 2-(3,3-diethylazetidin-1-yl)-N-(3,5-difluoro-4-(spiro[3.5]nonan-6-yloxy)phenyl)-5-(2,2,2-trifluoroethyl)oxazole-4-carboxamide] | 1000 to 10000 |
| O=C(Nc1ccc(OC2CCCC2(F)F)c(F)c1)c1nc(N2CC3CCCC3C2)oc1CC(F)(F)F (stereo not shown) [Example 23, N-(4-((2,2-difluorocyclopentyl)oxy)-3-fluorophenyl)-2-(hexahydrocyclopenta[c]pyrrol-2(1H)-yl)-5-(2,2,2-trifluoroethyl)oxazole-4-carboxamide] | 10 to 1000 |
| CN(c1ccc(NC(=O)c2nc(N3CC4(C3)CC(F)(F)C4)oc2CC(F)(F)F)cc1F)C1CCCC1 [Example 79, N-{4-[cyclopentyl(methyl)amino]-3-fluorophenyl}-2-{6,6-difluoro-2-azaspiro[3.3]heptan-2-yl}-5-(2,2,2-trifluoroethyl)oxazole-4-carboxamide] | 1000 to 10000 |
| Cc1oc(N2CCCC2C)nc1C(=O)Nc1ccc(N2CCCCC2)c(F)c1 (stereo not shown) [Example 119, N-(3-fluoro-4-(piperidin-1-yl)phenyl)-5-methyl-2-(2-methylpyrrolidin-1-yl)oxazole-4-carboxamide] | 1000 to 10000 |
| CCC1(CC)CN(c2nc(C(=O)Nc3cc(C)c4c(c3)CCN4C3CC4CC4C3)c(CC(F)(F)F)o2)C1 (stereo not shown) [Example 310, N-(1-(bicyclo[3.1.0]hexan-3-yl)-7-methylindolin-5-yl)-2-(3,3-diethylazetidin-1-yl)-5-(2,2,2-trifluoroethyl)oxazole-4-carboxamide] | 1000 to 10000 |
| CCC1(CC)CN(c2nc(C(=O)Nc3cc(F)c4c(c3)CCN4C3CC4CC4C3)c(CC(F)(F)F)o2)C1 (stereo not shown) [Example 311, N-(1-(bicyclo[3.1.0]hexan-3-yl)-7-fluoroindolin-5-yl)-2-(3,3-diethylazetidin-1-yl)-5-(2,2,2-trifluoroethyl)oxazole-4-carboxamide] | 1000 to 10000 |
| CC1(C)CN(c2nc(C(=O)Nc3cc(F)c(O[C@@H]4C[C@@H]5C[C@@H]5C4)c(F)c3)c(CC(F)(F)F)o2)CCO1 [Example 184, N-(4-(cis-bicyclo[3.1.0]hexan-3-yloxy)-3,5-difluorophenyl)-2-(2,2-dimethylmorpholino)-5-(2,2,2-trifluoroethyl)oxazole-4-carboxamide] | 1000 to 10000 |
| CCC1(OC)CN(c2nc(C(=O)Nc3cc(F)c4c(c3)CCN4C3CC4CC4C3)c(CC(F)(F)F)o2)C1 (stereo not shown) [Example 313, N-(1-(bicyclo[3.1.0]hexan-3-yl)-7-fluoroindolin-5-yl)-2-(3-ethyl-3-methoxyazetidin-1-yl)-5-(2,2,2-trifluoroethyl)oxazole-4-carboxamide] | 1000 to 10000 |
| COC1(C)CN(c2nc(C(=O)Nc3cc(F)c4c(c3)CCN4C3CC4CC4C3)c(CC(F)(F)F)o2)C1 (stereo not shown) [Example 312, N-(1-(bicyclo[3.1.0]hexan-3-yl)-7-fluoroindolin-5-yl)-2-(3-methoxy-3-methylazetidin-1-yl)-5-(2,2,2-trifluoroethyl)oxazole-4-carboxamide] | 1000 to 10000 |
| CCC1(CC)CN(c2nc(C(=O)Nc3cc(F)c(OC4CCCC5(CC5)C4)c(F)c3)c(CC(F)(F)F)o2)C1 (stereo not shown) [Example 132, 2-(3,3-diethylazetidin-1-yl)-N-(3,5-difluoro-4-(spiro[2.5]octan-5-yloxy)phenyl)-5-(2,2,2-trifluoroethyl)oxazole-4-carboxamide] | 1000 to 10000 |
| CCc1oc(N2CC(CC)(CC)C2)nc1C(=O)Nc1cc(C)c(NC2CC3CC(C3)C2)c(F)c1 (stereo not shown) [Example 253, N-(4-(bicyclo[3.1.1]heptan-3-ylamino)-3-fluoro-5-methylphenyl)-2-(3,3-diethylazetidin-1-yl)-5-ethyloxazole-4-carboxamide] | 1000 to 10000 |
| COC1(C)CN(c2nc(C(=O)Nc3cc(C)c(O[C@@H]4C[C@@H]5C[C@@H]5C4)c(O)c3)c(CC(F)(F)F)o2)C1 [Example 263, N-(4-(cis-bicyclo[3.1.0]hexan-3-yloxy)-3-hydroxy-5-methylphenyl)-2-(3-methoxy-3-methylazetidin-1-yl)-5-(2,2,2-trifluoroethyl)oxazole-4-carboxamide] | 10 to 1000 |
| O=C(Nc1cc(F)c(N2CCC3CCCC32)c(F)c1)c1nc(N2CCCC2)oc1CC(F)(F)F (stereo not shown) [Example 214, N-(3,5-difluoro-4-(hexahydrocyclopenta[b]pyrrol-1(2H)-yl)phenyl)-2-(pyrrolidin-1-yl)-5-(2,2,2-trifluoroethyl)oxazole-4-carboxamide] | 10 to 1000 |
| CCC(C)Oc1ccc(NC(=O)c2nc(N3CCCC3)oc2CC(F)(F)F)cc1F (stereo not shown) [Example 59, N-(4-(sec-butoxy)-3-fluorophenyl)-2-(pyrrolidin-1-yl)-5-(2,2,2-trifluoroethyl)oxazole-4-carboxamide] | 1000 to 10000 |
| CCC1(CC)CN(c2nc(C(=O)Nc3cc(C)c(NC4CC5CC(C5)C4)c(F)c3)c(CCF)o2)C1 (stereo not shown) [Example 292, N-(4-(bicyclo[3.1.1]heptan-3-ylamino)-3-fluoro-5-methylphenyl)-2-(3,3-diethylazetidin-1-yl)-5-(2-fluoroethyl)oxazole-4-carboxamide] | 1000 to 10000 |
| O=C(Nc1ccc(OC2CC(F)(F)C2)c(F)c1)c1nc(N2CCCC2)oc1CC(F)(F)F [Example 44, N-[4-(3,3-difluorocyclobutoxy)-3-fluorophenyl]-2-(pyrrolidin-1-yl)-5-(2,2,2-trifluoroethyl)oxazole-4-carboxamide] | 1000 to 10000 |
| O=C(Nc1cc(F)c(O[C@@H]2C[C@@H]3C[C@@H]3C2)c(F)c1)c1nc(N2CC3(CCOC3)C2)oc1CC(F)(F)F [Example 189, N-(4-(cis-bicyclo[3.1.0]hexan-3-yloxy)-3,5-difluorophenyl)-2-(6-oxa-2-azaspiro[3.4]octan-2-yl)-5-(2,2,2-trifluoroethyl)oxazole-4-carboxamide] | 10 to 1000 |
